Among the data in patent publication US10106538B2, “Inhibitors of protein kinases” (PRINCETON DRUG DISCOVERY INC, priority 2015, dated 2018) are inhibition values, retold here.

What all share (assay): Off-chip Mobility Shift Assay (MSA) kinase inhibition
Format in all cases: biochemical

The target of experiment [1] is T1, BLK (Homo sapiens, UniProt P51451).
T1 construct: purchased Carna Biosciences
An outline of the steps: (§1)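 Inhibition is calculated from the product ratio P/(P+S), with the complete reaction set to 0% and the enzyme-free background to 100%. Reactions run at room temperature, 1 or 5 h per kinase, in HEPES-based buffer pH 7.5.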

Experiment [2] addresses T2, DDR1 (Homo sapiens, UniProt Q08345).
T2 construct: purchased Carna Biosciences
An outline of the steps:
as §1

Experiment [3] deals with T3, DDR2 (Homo sapiens, UniProt Q16832).
T3 construct: purchased Carna Biosciences
T3 sequence (Q16832 22-855): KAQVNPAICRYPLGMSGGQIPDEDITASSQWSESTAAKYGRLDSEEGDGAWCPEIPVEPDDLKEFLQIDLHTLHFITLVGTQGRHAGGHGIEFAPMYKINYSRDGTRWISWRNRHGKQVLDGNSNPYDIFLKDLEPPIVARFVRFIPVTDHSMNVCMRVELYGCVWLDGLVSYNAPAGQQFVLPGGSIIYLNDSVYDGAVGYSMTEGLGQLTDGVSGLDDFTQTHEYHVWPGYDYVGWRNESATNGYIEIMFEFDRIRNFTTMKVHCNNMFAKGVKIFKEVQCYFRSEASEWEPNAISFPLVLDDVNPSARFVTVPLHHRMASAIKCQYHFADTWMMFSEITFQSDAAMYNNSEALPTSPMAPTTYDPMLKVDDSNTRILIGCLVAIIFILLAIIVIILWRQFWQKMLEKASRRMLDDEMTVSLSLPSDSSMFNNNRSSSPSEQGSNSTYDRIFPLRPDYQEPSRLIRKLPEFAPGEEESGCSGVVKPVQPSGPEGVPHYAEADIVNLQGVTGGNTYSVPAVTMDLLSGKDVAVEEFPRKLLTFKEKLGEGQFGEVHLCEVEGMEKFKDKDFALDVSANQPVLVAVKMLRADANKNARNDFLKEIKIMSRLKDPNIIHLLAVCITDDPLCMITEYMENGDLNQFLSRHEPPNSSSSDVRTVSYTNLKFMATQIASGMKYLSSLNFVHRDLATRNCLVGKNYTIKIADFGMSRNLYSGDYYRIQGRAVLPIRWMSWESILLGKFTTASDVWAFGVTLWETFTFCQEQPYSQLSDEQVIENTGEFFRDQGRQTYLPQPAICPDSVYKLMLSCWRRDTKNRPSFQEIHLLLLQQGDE
An outline of the steps: as §1

The target in experiment [4] is T4, KIT(D816Y) (Homo sapiens, UniProt P10721, D816Y).
T4 construct: purchased Carna Biosciences
T4 sequence (P10721 26-976 D816Y): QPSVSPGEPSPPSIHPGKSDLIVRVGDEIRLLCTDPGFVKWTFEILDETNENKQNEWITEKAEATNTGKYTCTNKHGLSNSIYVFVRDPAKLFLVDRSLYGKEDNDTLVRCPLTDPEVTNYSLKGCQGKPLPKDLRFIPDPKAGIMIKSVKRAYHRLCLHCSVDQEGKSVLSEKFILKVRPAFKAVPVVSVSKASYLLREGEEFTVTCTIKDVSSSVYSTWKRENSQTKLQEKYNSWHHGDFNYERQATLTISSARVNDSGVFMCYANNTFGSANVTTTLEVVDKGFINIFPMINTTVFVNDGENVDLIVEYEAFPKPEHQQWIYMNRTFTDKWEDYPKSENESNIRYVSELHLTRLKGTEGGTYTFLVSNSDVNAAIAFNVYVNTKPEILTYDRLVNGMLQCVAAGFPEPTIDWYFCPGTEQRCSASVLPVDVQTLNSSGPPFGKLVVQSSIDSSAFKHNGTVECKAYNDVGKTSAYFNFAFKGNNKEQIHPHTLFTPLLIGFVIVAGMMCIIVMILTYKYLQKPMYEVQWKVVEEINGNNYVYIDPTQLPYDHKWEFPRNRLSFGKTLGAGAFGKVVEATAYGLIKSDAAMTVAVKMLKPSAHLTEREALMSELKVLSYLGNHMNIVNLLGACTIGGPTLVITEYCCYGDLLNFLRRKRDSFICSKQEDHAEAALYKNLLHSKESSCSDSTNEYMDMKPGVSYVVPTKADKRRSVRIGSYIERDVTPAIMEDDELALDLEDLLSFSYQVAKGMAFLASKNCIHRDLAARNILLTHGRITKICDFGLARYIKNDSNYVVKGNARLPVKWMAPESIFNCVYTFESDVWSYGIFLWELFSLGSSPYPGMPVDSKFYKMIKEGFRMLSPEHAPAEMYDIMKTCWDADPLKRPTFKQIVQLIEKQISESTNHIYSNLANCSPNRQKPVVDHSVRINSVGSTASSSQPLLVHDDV
The conditions noted are these: inhibitor concentration 1 μM. An outline of the steps: as §1

In experiment [5] the target is T5, MAP2K3 (Homo sapiens, UniProt P46734).
T5 construct: purchased Carna Biosciences
T5 sequence (P46734 whole entry): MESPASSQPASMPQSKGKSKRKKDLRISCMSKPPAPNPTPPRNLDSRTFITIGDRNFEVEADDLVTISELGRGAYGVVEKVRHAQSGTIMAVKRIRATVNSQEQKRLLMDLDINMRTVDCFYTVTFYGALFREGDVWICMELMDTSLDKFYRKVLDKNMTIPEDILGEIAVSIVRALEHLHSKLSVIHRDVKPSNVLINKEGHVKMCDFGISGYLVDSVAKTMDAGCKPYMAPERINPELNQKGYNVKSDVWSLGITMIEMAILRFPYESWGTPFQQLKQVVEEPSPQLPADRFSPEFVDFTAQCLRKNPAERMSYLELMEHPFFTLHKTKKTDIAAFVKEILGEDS
The conditions noted are these: inhibitor concentration 1 μM. An outline of the steps: as §1

In experiment [6] the target is T6, RET(S891A) (Homo sapiens, UniProt P07949, S891A).
T6 construct: purchased Carna Biosciences
T6 sequence (P07949 29-1114 S891A): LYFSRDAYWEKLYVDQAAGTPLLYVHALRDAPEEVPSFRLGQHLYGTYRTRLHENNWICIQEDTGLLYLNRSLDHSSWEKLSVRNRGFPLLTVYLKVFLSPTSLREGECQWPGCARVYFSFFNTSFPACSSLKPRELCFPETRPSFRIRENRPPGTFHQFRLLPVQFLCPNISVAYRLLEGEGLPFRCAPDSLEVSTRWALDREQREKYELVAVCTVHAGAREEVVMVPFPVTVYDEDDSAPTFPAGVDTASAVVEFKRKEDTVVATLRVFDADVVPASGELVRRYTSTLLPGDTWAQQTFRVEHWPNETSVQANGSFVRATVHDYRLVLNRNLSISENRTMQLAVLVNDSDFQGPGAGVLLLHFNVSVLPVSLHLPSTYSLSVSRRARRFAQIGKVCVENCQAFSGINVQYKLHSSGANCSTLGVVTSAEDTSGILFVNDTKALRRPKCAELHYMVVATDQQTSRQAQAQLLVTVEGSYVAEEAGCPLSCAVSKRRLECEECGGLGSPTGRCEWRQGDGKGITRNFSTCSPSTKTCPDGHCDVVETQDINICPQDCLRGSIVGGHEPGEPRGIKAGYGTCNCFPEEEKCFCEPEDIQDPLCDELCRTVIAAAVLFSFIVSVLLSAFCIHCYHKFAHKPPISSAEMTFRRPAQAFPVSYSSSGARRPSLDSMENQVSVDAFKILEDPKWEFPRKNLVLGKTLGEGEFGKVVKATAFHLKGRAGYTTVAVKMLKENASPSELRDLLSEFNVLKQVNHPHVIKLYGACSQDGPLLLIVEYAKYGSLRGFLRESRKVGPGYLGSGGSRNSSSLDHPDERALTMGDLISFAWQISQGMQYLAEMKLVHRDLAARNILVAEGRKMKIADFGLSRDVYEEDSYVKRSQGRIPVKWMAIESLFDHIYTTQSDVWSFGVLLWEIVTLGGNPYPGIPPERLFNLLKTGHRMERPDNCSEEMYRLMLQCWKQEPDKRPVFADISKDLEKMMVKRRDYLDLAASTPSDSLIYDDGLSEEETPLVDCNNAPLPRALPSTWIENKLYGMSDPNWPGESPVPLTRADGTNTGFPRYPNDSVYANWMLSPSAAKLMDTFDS
An outline of the steps: as §1

[7] abbreviates: inhibitor concentration 0.01 μM.

T1 sequence (P51451 whole entry): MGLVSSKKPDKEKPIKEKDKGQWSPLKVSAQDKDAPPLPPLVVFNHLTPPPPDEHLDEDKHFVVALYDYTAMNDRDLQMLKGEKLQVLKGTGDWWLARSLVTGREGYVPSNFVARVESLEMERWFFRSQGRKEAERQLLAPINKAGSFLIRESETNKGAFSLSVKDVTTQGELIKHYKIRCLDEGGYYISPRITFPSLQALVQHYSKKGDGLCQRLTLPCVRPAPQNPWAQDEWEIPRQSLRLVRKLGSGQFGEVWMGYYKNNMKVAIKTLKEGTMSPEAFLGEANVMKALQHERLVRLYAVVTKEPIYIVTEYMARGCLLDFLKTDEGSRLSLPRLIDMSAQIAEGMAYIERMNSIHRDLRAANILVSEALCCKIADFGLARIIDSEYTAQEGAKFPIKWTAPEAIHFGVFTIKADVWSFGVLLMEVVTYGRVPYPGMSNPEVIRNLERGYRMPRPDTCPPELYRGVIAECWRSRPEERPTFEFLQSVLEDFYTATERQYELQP
T2 sequence (Q08345 19-913): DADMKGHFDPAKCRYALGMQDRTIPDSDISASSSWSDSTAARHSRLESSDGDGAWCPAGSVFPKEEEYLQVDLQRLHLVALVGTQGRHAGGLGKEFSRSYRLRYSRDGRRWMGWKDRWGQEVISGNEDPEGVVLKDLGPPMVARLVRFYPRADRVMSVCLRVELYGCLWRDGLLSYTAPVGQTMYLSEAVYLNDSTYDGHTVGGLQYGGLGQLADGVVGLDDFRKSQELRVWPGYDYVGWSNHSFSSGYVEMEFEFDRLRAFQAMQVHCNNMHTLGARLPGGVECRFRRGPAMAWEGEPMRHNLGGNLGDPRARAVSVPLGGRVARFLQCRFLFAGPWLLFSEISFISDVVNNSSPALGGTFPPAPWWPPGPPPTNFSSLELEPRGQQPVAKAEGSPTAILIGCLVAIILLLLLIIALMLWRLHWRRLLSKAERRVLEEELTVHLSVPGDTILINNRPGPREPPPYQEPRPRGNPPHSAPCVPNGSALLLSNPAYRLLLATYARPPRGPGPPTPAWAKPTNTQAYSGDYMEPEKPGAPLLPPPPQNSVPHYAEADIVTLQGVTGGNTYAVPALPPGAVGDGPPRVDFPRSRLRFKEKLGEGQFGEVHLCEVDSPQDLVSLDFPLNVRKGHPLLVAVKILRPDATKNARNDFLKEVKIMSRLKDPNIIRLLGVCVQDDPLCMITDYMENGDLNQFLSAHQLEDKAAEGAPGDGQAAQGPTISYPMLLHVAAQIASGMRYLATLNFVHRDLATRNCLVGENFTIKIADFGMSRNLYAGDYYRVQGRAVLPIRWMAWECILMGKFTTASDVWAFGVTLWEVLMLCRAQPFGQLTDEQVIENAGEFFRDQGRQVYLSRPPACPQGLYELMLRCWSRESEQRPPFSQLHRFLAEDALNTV

As a reminder, the inhibition is the drop in the measured response relative to a control, in per cent. Take `O=C(c1c(F)ccc(NS(=O)(=O)CCCO)c1F)c1c[nH]c2ncc(-c3ccc(Cl)cc3)cc12` [200-17, N-[3-[5-(4-chlorophenyl)-1H-pyrrolo[2,3-b]pyridine-3-carbonyl]-2,4-difluorophenyl]-3-hydroxypropane-1-sulfonamide]: the inhibition at 0.01 µM in experiment [1] (setting [7]), in experiment [2] (setting [7]), in experiment [3] (setting [7]) and in experiment [6] (setting [7]) was below 30% each time. Moreover, the inhibition at 0.1 µM in experiment [1] (inhibitor concentration 0.1 μM), in experiment [2] (inhibitor concentration 0.1 μM), in experiment [3] (inhibitor concentration 0.1 μM) and in experiment [6] (inhibitor concentration 0.1 μM) was above 50% throughout. The inhibition at 1 µM in experiment [1] (inhibitor concentration 1 μM) was above 50%; in experiment [2] (inhibitor concentration 1 μM), above 50%; in experiment [3] (inhibitor concentration 1 μM), above 50%; in experiment [4] it was below 50%; in experiment [5] it was above 50%; in experiment [6] (inhibitor concentration 1 μM) it was above 50%.
